Data reported in US20240270762A1, “PENICILLIN-BINDING PROTEIN INHIBITORS” (priority 2021, published 2024).
Converted amounts (≈) assume the structure as drawn. Like-named read-outs stand apart in the source and are kept apart here.

Tests used:
[1] = target: T1, PBP1a from Acinetobacter baumannii (ATCC 19606) (Acinetobacter baumannii, UniProt A0ABX6CK30); test: Bocillin-FL fluorescence polarization competition binding, A. baumannii PBP1a; details: fluorescence polarization competition binding assay using Bocillin-FL; read-out: A. baumannii PBP1a Potency
T1 sequence (A0ABX6CK30 1-851): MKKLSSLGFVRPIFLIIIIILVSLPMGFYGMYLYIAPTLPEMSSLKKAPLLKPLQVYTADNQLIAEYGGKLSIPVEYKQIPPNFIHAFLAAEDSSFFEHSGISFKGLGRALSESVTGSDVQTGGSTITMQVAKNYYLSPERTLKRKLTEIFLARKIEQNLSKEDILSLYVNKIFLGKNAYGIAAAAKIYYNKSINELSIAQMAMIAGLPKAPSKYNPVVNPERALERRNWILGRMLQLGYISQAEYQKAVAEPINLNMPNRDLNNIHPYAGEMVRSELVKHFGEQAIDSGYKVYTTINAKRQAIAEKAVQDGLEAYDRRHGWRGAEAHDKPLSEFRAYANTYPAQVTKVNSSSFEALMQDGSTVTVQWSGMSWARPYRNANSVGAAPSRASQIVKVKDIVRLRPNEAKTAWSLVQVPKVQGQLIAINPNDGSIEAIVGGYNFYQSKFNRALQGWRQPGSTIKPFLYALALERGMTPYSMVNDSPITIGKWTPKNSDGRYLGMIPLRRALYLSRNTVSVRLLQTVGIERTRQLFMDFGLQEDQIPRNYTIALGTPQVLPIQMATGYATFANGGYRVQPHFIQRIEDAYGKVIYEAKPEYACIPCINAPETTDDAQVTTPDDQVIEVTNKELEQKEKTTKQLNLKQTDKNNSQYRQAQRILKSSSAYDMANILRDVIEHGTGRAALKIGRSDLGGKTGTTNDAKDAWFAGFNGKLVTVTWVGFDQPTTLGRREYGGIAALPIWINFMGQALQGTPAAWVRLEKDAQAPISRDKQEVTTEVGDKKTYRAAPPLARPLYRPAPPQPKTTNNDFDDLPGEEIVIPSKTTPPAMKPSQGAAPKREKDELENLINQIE
Summary of the method: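 Purified PBPs pre-incubated with inhibitor (E. coli PBP3 1.5 μM, 30 min; P. aeruginosa PBP3 0.75 μM, A. baumannii PBP1a 1 μM and PBP3 0.2 μM, 15 min), then Bocillin-FL 0.1 μM (0.05 μM for PBP1a) added; FP read up to 60 min. EC50 = concentration halving bound Bocillin-FL.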

P. aeruginosa ATCC 35151 = test: microbe, parasite or virus in culture; assay type: cell-based; details: Pseudomonas aeruginosa, ATCC35151, read-out: Minimum inhibitory concentration, P. aeruginosa ATCC 35151
[2] = tested on: P. aeruginosa (ΔmexAB-oprM); test: Broth microdilution MIC in iron-depleted CAMHB (IDM); assay type: cell-based; details: Pseudomonas aeruginosa; iron-depleted CAMHB (IDM); […]; read-out: Minimum inhibitory concentration, P. aeruginosa ΔmexAB-oprM
A. baumannii CDC-0083 = test: microbe, parasite or virus in culture; assay type: cell-based; details: Acinetobacter baumannii, CDC0083, read-out: MIC, A. baumannii CDC-0083
[3] = tested on: B. thailandensis ATCC 700388; test: microbe, parasite or virus in culture; assay type: cell-based; details: Burkholderia thailandensis, ATCC700388, read-out: Minimum inhibitory concentration (MIC), B. thailandensis ATCC 700388
[4] = tested on: N. gonorrhoeae ATCC 49226; test: Liquid broth MIC in Fastidious broth; details: Neisseria gonorrhoeae
N. gonorrhoeae WHO X = test: Liquid broth MIC in Fastidious broth; details: Neisseria gonorrhoeae
N. gonorrhoeae WHO Q = test: Liquid broth MIC in Fastidious broth; details: Neisseria gonorrhoeae
[5] = ATCC49226, read-out: Minimum Inhibitory Concentration, ATCC 49226
[6] = read-out: Minimum Inhibitory Concentration, WHO X
[7] = read-out: Minimum Inhibitory Concentration, WHO Q
[8] = ATCC49226, read-out: Minimum Inhibitory Concentration (MIC), N. gonorrhoeae ATCC 49226
[9] = read-out: Minimum Inhibitory Concentration (MIC), N. gonorrhoeae WHO X
[10] = read-out: Minimum Inhibitory Concentration (MIC), N. gonorrhoeae WHO Q

O=C(O)c1c(F)ccc2c1OB(O)[C@@H](NC(=O)C(NC(=O)N1CCN(S(=O)(=O)CCNC(=O)[C@@H]3CCCN3)C1=O)c1cc(F)c(O)c(O)c1Cl)C2 (stereo partly drawn) [Example 265, (3R)-3-(2-(2-chloro-5-fluoro-3,4-dihydroxyphenyl)-2-(2-oxo-3-((2-((S)-pyrrolidine-2-carboxamido)ethyl)sulfonyl)imidazolidine-1-carboxamido)acetamido)-7-fluoro-2-hydroxy-3,4-dihydro-2H-benzo[e][1,2]oxaborinine-8-carboxylic acid]
IC50 [1]: > 250 µM
MIC (P. aeruginosa ATCC 35151): < 1 µg/mL
MIC [2]: < 1 µg/mL
MIC (A. baumannii CDC-0083): < 1 µg/mL
MIC [3]: < 1 µg/mL
MIC [4, 5]: 16 to 32 µg/mL (≈ 21.1 to 42.2 µM)
MIC (N. gonorrhoeae WHO X; [6]): > 64 µg/mL
MIC (N. gonorrhoeae WHO Q; [7]): 16 to 32 µg/mL (≈ 21.1 to 42.2 µM)

O=C(CN1CCN(C(=O)N[C@@H](C(=O)N[C@H]2Cc3ccc(F)c(C(=O)O)c3OB2O)c2cc(F)c(O)c(O)c2Cl)C(=O)C1=O)NCc1nccs1 [Example 241, (R)-3-((R)-2-(2-chloro-5-fluoro-3,4-dihydroxyphenyl)-2-(2,3-dioxo-4-(2-oxo-2-((thiazol-2-ylmethyl)amino)ethyl)piperazine-1-carboxamido)acetamido)-7-fluoro-2-hydroxy-3,4-dihydro-2H-benzo[e][1,2]oxaborinine-8-carboxylic acid]
IC50 [1]: > 250 µM
MIC (P. aeruginosa ATCC 35151): < 1 µg/mL
MIC [2]: < 1 µg/mL
MIC (A. baumannii CDC-0083): > 128 µg/mL
MIC [3]: 2 to 4 µg/mL (≈ 2.71 to 5.43 µM)
MIC [4, 8]: 4 to 8 µg/mL (≈ 5.43 to 10.9 µM)
MIC (N. gonorrhoeae WHO X; [9]): > 64 µg/mL
MIC (N. gonorrhoeae WHO Q; [10]): 16 to 32 µg/mL (≈ 21.7 to 43.4 µM)

O=C(NCCN1CCN(C(=O)NC(C(=O)N[C@H]2Cc3ccc(F)c(C(=O)O)c3OB2O)c2cc(F)c(O)c(O)c2Cl)C1=O)c1nccs1 (stereo partly drawn) [Example 247, (3R)-3-(2-(2-chloro-5-fluoro-3,4-dihydroxyphenyl)-2-(2-oxo-3-(2-(thiazole-2-carboxamido)ethyl)imidazolidine-1-carboxamido)acetamido)-7-fluoro-2-hydroxy-3,4-dihydro-2H-benzo[e][1,2]oxaborinine-8-carboxylic acid]
IC50 [1]: > 250 µM
MIC (P. aeruginosa ATCC 35151): < 1 µg/mL
MIC [2]: < 1 µg/mL
MIC (A. baumannii CDC-0083): < 1 µg/mL
MIC [3]: < 1 µg/mL
MIC [4, 5]: 16 to 32 µg/mL (≈ 22.6 to 45.1 µM)
MIC (N. gonorrhoeae WHO X; [6]): > 64 µg/mL
MIC (N. gonorrhoeae WHO Q; [7]): 16 to 32 µg/mL (≈ 22.6 to 45.1 µM)

O=C(CN1CCN(C(=O)NC(C(=O)N[C@H]2Cc3ccc(F)c(C(=O)O)c3OB2O)c2cc(F)c(O)c(O)c2Cl)C(=O)C1=O)Nc1nccs1 (stereo partly drawn) [Example 235, (3R)-3-(2-(2-chloro-5-fluoro-3,4-dihydroxyphenyl)-2-(2,3-dioxo-4-(2-oxo-2-(thiazol-2-ylamino)ethyl)piperazine-1-carboxamido)acetamido)-7-fluoro-2-hydroxy-3,4-dihydro-2H-benzo[e][1,2]oxaborinine-8-carboxylic acid]
IC50 [1]: > 250 µM
MIC (P. aeruginosa ATCC 35151): < 1 µg/mL
MIC [2]: < 1 µg/mL
MIC (A. baumannii CDC-0083): < 1 µg/mL
MIC [3]: 8 to 16 µg/mL (≈ 11.1 to 22.1 µM)
MIC [4, 8]: 16 to 32 µg/mL (≈ 22.1 to 44.3 µM)
MIC (N. gonorrhoeae WHO X; [9]): > 64 µg/mL
MIC (N. gonorrhoeae WHO Q; [10]): 16 to 32 µg/mL (≈ 22.1 to 44.3 µM)

O=C(CN1CCN(C(=O)NC(C(=O)N[C@H]2Cc3ccc(F)c(C(=O)O)c3OB2O)c2cc(F)c(O)c(O)c2Cl)C(=O)C1=O)Nc1cccnc1 (stereo partly drawn) [Example 234, (3R)-3-(2-(2-chloro-5-fluoro-3,4-dihydroxyphenyl)-2-(2,3-dioxo-4-(2-oxo-2-(pyridin-3-ylamino)ethyl)piperazine-1-carboxamido)acetamido)-7-fluoro-2-hydroxy-3,4-dihydro-2H-benzo[e][1,2]oxaborinine-8-carboxylic acid]
IC50 [1]: > 250 µM
MIC (P. aeruginosa ATCC 35151): < 1 µg/mL
MIC [2]: < 1 µg/mL
MIC (A. baumannii CDC-0083): < 1 µg/mL
MIC [3]: 8 to 16 µg/mL (≈ 11.2 to 22.3 µM)
MIC [4, 8]: 4 to 8 µg/mL (≈ 5.58 to 11.2 µM)
MIC (N. gonorrhoeae WHO X; [9]): > 64 µg/mL
MIC (N. gonorrhoeae WHO Q; [10]): 16 to 32 µg/mL (≈ 22.3 to 44.6 µM)

O=C(NCCCN1CCN(C(=O)NC(C(=O)N[C@H]2Cc3ccc(F)c(C(=O)O)c3OB2O)c2cc(F)c(O)c(O)c2Cl)C(=O)C1=O)c1ccncc1 (stereo partly drawn) [Example 205, (3R)-3-(2-(2-chloro-5-fluoro-3,4-dihydroxyphenyl)-2-(4-(3-(isonicotinamido)propyl)-2,3-dioxopiperazine-1-carboxamido)acetamido)-7-fluoro-2-hydroxy-3,4-dihydro-2H-benzo[e][1,2]oxaborinine-8-carboxylic acid]
IC50 [1]: > 250 µM
MIC (P. aeruginosa ATCC 35151): < 1 µg/mL
MIC [2]: < 1 µg/mL
MIC (A. baumannii CDC-0083): < 1 µg/mL
MIC [3]: < 1 µg/mL
MIC [4, 8]: 16 to 32 µg/mL (≈ 21.5 to 43 µM)
MIC (N. gonorrhoeae WHO X; [9]): > 64 µg/mL
MIC (N. gonorrhoeae WHO Q; [10]): 16 to 32 µg/mL (≈ 21.5 to 43 µM)

O=C(NCCCN1CCN(C(=O)NC(C(=O)N[C@H]2Cc3ccc(F)c(C(=O)O)c3OB2O)c2cc(F)c(O)c(O)c2Cl)C(=O)C1=O)c1nccs1 (stereo partly drawn) [Example 211, (3R)-3-(2-(2-chloro-5-fluoro-3,4-dihydroxyphenyl)-2-(2,3-dioxo-4-(3-(thiazole-2-carboxamido)propyl)piperazine-1-carboxamido)acetamido)-7-fluoro-2-hydroxy-3,4-dihydro-2H-benzo[e][1,2]oxaborinine-8-carboxylic acid]
IC50 [1]: > 250 µM
MIC (P. aeruginosa ATCC 35151): < 1 µg/mL
MIC [2]: < 1 µg/mL
MIC (A. baumannii CDC-0083): < 1 µg/mL
MIC [3]: 2 to 4 µg/mL (≈ 2.66 to 5.33 µM)
MIC [4, 8]: 16 to 32 µg/mL (≈ 21.3 to 42.6 µM)
MIC (N. gonorrhoeae WHO X; [9]): > 64 µg/mL
MIC (N. gonorrhoeae WHO Q; [10]): > 64 µg/mL

O=C(NCCCS(=O)(=O)N1CCN(C(=O)NC(C(=O)N[C@H]2Cc3ccc(F)c(C(=O)O)c3OB2O)c2cc(F)c(O)c(O)c2Cl)C1=O)c1ccc(O)cc1 (stereo partly drawn) [Example 269, (3R)-3-(2-(2-chloro-5-fluoro-3,4-dihydroxyphenyl)-2-(3-((3-(4-hydroxybenzamido)propyl)sulfonyl)-2-oxoimidazolidine-1-carboxamido)acetamido)-7-fluoro-2-hydroxy-3,4-dihydro-2H-benzo[e][1,2]oxaborinine-8-carboxylic acid]
IC50 [1]: > 250 µM
MIC (P. aeruginosa ATCC 35151): < 1 µg/mL
MIC [2]: < 1 µg/mL
MIC (A. baumannii CDC-0083): 32 to 64 µg/mL (≈ 40.2 to 80.4 µM)
MIC [3]: > 128 µg/mL
MIC [4, 5]: 16 to 32 µg/mL (≈ 20.1 to 40.2 µM)
MIC (N. gonorrhoeae WHO X; [6]): > 64 µg/mL
MIC (N. gonorrhoeae WHO Q; [7]): 16 to 32 µg/mL (≈ 20.1 to 40.2 µM)

O=C(NCCN1CCN(C(=O)NC(C(=O)N[C@H]2Cc3ccc(F)c(C(=O)O)c3OB2O)c2cc(F)c(O)c(O)c2Cl)C1=O)c1ccccc1 (stereo partly drawn) [Example 242, (3R)-3-(2-(3-(2-benzamidoethyl)-2-oxoimidazolidine-1-carboxamido)-2-(2-chloro-5-fluoro-3,4-dihydroxyphenyl)acetamido)-7-fluoro-2-hydroxy-3,4-dihydro-2H-benzo[e][1,2]oxaborinine-8-carboxylic acid]
IC50 [1]: > 250 µM
MIC (P. aeruginosa ATCC 35151): < 1 µg/mL
MIC [2]: < 1 µg/mL
MIC (A. baumannii CDC-0083): 2 to 4 µg/mL (≈ 2.85 to 5.7 µM)
MIC [3]: 2 to 4 µg/mL (≈ 2.85 to 5.7 µM)
MIC [4, 8]: 16 to 32 µg/mL (≈ 22.8 to 45.6 µM)
MIC (N. gonorrhoeae WHO X; [9]): > 64 µg/mL
MIC (N. gonorrhoeae WHO Q; [10]): > 64 µg/mL

O=C(NCCN1CCN(C(=O)NC(C(=O)N[C@H]2Cc3ccc(F)c(C(=O)O)c3OB2O)c2cc(F)c(O)c(O)c2Cl)C(=O)C1=O)Nc1cccc(O)c1 (stereo partly drawn) [Example 220, (3R)-3-(2-(2-chloro-5-fluoro-3,4-dihydroxyphenyl)-2-(4-(2-(3-(3-hydroxyphenyl)ureido)ethyl)-2,3-dioxopiperazine-1-carboxamido)acetamido)-7-fluoro-2-hydroxy-3,4-dihydro-2H-benzo[e][1,2]oxaborinine-8-carboxylic acid]
IC50 [1]: > 250 µM
MIC (P. aeruginosa ATCC 35151): < 1 µg/mL
MIC [2]: < 1 µg/mL
MIC (A. baumannii CDC-0083): 8 to 16 µg/mL (≈ 10.5 to 21 µM)
MIC [3]: 8 to 16 µg/mL (≈ 10.5 to 21 µM)
MIC [4, 8]: 16 to 32 µg/mL (≈ 21 to 42.1 µM)
MIC (N. gonorrhoeae WHO X; [9]): > 64 µg/mL
MIC (N. gonorrhoeae WHO Q; [10]): > 64 µg/mL
